{"source": "ChEMBL document CHEMBL3608278", "about": "(J Med Chem, 2015)", "key": {"[1]": {"target": "T1, Potassium voltage-gated channel subfamily A member 3 (Homo sapiens, UniProt P22001)", "T1 sequence (P22001 whole entry)": "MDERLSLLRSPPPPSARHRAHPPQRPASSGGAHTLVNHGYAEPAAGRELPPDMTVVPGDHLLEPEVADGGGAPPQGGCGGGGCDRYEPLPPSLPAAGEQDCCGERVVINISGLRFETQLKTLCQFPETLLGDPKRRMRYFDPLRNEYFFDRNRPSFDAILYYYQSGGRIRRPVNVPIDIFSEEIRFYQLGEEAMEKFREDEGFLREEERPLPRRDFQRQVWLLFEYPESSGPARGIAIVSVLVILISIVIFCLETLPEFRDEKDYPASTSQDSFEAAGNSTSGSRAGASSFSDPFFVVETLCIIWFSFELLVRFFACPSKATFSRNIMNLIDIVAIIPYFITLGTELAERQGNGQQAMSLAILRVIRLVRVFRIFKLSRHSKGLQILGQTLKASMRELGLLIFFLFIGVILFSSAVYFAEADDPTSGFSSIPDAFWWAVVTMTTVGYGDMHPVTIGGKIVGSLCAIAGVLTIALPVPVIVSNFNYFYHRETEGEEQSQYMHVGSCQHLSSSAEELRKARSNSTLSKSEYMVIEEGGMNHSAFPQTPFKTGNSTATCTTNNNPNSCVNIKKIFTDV", "design": "species or system Blood"}, "[2]": {"target": "T1, Potassium voltage-gated channel subfamily A member 3", "experiment": "cell-based", "design": "species or system Blood"}}, "data": [{"smiles": "CC[C@H](C)[C@@H]1NC(=O)[C@@H](NC(=O)[C@H](CO)NC(=O)[C@@H](N)Cc2cccc3ccccc23)CSSC[C@@H](C(=O)O)NC(=O)[C@H]([C@@H](C)O)NC(=O)CNC(=O)[C@@H]2CSSC[C@@H]3NC(=O)[C@H](CCC(N)=O)NC(=O)[C@H](Cc4ccccc4)NC(=O)[C@H](C)NC(=O)[C@H]([C@@H](C)O)NC(=O)[C@H](CSSC[C@H](NC(=O)[C@H](Cc4ccccc4)NC(=O)[C@H](CO)NC(=O)[C@H](CC(C)C)NC(=O)[C@H](CCCNC(=N)N)NC(=O)[C@H](Cc4ccc(O)cc4)NC(=O)[C@H](CCCCN)NC(=O)[C@H](CCSC)NC(=O)[C@H](CO)NC(=O)[C@H](Cc4cnc[nH]4)NC(=O)[C@H](CCCCN)NC3=O)C(=O)N[C@@H](CCCNC(=N)N)C(=O)N[C@@H](CCCCN)C(=O)N[C@@H]([C@@H](C)O)C(=O)N2)NC(=O)[C@H](CCCNC(=N)N)NC(=O)[C@H](CO)NC(=O)[C@H](CCCCN)NC(=O)[C@@H]2CCCN2C(=O)[C@H]([C@@H](C)CC)NC(=O)[C@H]([C@@H](C)O)NC(=O)[C@H](CC(=O)O)NC1=O", "values": [{"measurement": "IC50", "setting": "[1]", "result": 0.248, "unit": "nM"}, {"measurement": "IC50", "setting": "[2]", "result": 0.222, "unit": "nM"}]}, {"smiles": "CC[C@H](C)[C@@H]1NC(=O)[C@@H](NC(=O)[C@H](CO)NC(=O)[C@@H](N)CCCNC(=N)N)CSSC[C@@H](C(=O)O)NC(=O)[C@H]([C@@H](C)O)NC(=O)CNC(=O)[C@@H]2CSSC[C@@H]3NC(=O)[C@H](CCC(N)=O)NC(=O)[C@H](Cc4ccccc4)NC(=O)[C@H](C)NC(=O)[C@H]([C@@H](C)O)NC(=O)[C@H](CSSC[C@H](NC(=O)[C@H](Cc4ccccc4)NC(=O)[C@H](CO)NC(=O)[C@H](CC(C)C)NC(=O)[C@H](CCCNC(=N)N)NC(=O)[C@H](Cc4ccc(O)cc4)NC(=O)[C@H](CCCCN)NC(=O)[C@H](CCSC)NC(=O)[C@H](CO)NC(=O)[C@H](Cc4cnc[nH]4)NC(=O)[C@H](Cc4cccc5ccccc45)NC3=O)C(=O)N[C@@H](CCCNC(=N)N)C(=O)N[C@@H](CCCCN)C(=O)N[C@@H]([C@@H](C)O)C(=O)N2)NC(=O)[C@H](CCCNC(=N)N)NC(=O)[C@H](CO)NC(=O)[C@H](CCCCN)NC(=O)[C@@H]2CCCN2C(=O)[C@H]([C@@H](C)CC)NC(=O)[C@H]([C@@H](C)O)NC(=O)[C@H](CC(=O)O)NC1=O", "values": [{"measurement": "IC50", "setting": "[1]", "result": 0.375, "unit": "nM"}, {"measurement": "IC50", "setting": "[2]", "result": 0.419, "unit": "nM"}]}, {"smiles": "CC[C@H](C)[C@@H]1NC(=O)[C@@H](NC(=O)[C@H](CO)NC(=O)[C@@H](N)CCCNC(=N)N)CSSC[C@@H](C(=O)O)NC(=O)[C@H](CCC(=O)O)NC(=O)CNC(=O)[C@@H]2CSSC[C@@H]3NC(=O)[C@H](CCC(N)=O)NC(=O)[C@H](Cc4ccccc4)NC(=O)[C@H](C)NC(=O)[C@H]([C@@H](C)O)NC(=O)[C@H](CSSC[C@H](NC(=O)[C@H](Cc4ccccc4)NC(=O)[C@H](CO)NC(=O)[C@H](CC(C)C)NC(=O)[C@H](CCCNC(=N)N)NC(=O)[C@H](Cc4ccc(O)cc4)NC(=O)[C@H](CCCCN)NC(=O)[C@H](CCSC)NC(=O)[C@H](CO)NC(=O)[C@H](Cc4cnc[nH]4)NC(=O)[C@H](CCCCN)NC3=O)C(=O)N[C@@H](CCCNC(=N)N)C(=O)N[C@@H](CCCCN)C(=O)N[C@@H]([C@@H](C)O)C(=O)N2)NC(=O)[C@H](CCCNC(=N)N)NC(=O)[C@H](CO)NC(=O)[C@H](CCCCN)NC(=O)[C@@H]2CCCN2C(=O)[C@H]([C@@H](C)CC)NC(=O)[C@H]([C@@H](C)O)NC(=O)[C@H](CC(=O)O)NC1=O", "values": [{"measurement": "IC50", "setting": "[1]", "result": 0.124, "unit": "nM"}]}, {"smiles": "CC[C@H](C)[C@@H]1NC(=O)[C@@H](NC(=O)[C@H](CO)NC(=O)[C@@H](N)CCCNC(=N)N)CSSC[C@@H](C(=O)O)NC(=O)[C@H]([C@@H](C)O)NC(=O)CNC(=O)[C@@H]2CSSC[C@@H]3NC(=O)[C@H](CCC(N)=O)NC(=O)[C@H](Cc4ccccc4)NC(=O)[C@H](C)NC(=O)[C@H]([C@@H](C)O)NC(=O)[C@H](CSSC[C@H](NC(=O)[C@H](Cc4ccccc4)NC(=O)[C@H](CO)NC(=O)[C@H](CC(C)C)NC(=O)[C@H](C)NC(=O)[C@H](Cc4ccc(O)cc4)NC(=O)[C@H](CCCCN)NC(=O)[C@H](CCSC)NC(=O)[C@H](CO)NC(=O)[C@H](Cc4cnc[nH]4)NC(=O)[C@H](CCCCN)NC3=O)C(=O)N[C@@H](CCCNC(=N)N)C(=O)N[C@@H](CCCCN)C(=O)N[C@@H]([C@@H](C)O)C(=O)N2)NC(=O)[C@H](CCCNC(=N)N)NC(=O)[C@H](CO)NC(=O)[C@H](CCCCN)NC(=O)[C@@H]2CCCN2C(=O)[C@H]([C@@H](C)CC)NC(=O)[C@H]([C@@H](C)O)NC(=O)[C@H](CC(=O)O)NC1=O", "values": [{"measurement": "IC50", "setting": "[1]", "result": 0.186, "unit": "nM"}, {"measurement": "IC50", "setting": "[2]", "result": 0.045, "unit": "nM"}]}, {"smiles": "CC[C@H](C)[C@@H]1NC(=O)[C@@H](NC(=O)[C@H](CO)NC(=O)[C@@H](N)CCCNC(=N)N)CSSC[C@@H](C(=O)O)NC(=O)[C@H]([C@@H](C)O)NC(=O)CNC(=O)[C@@H]2CSSC[C@@H]3NC(=O)[C@H](CCC(N)=O)NC(=O)[C@H](Cc4ccccc4)NC(=O)[C@H](C)NC(=O)[C@H]([C@@H](C)O)NC(=O)[C@H](CSSC[C@H](NC(=O)[C@H](Cc4ccccc4)NC(=O)[C@H](CO)NC(=O)[C@H](C)NC(=O)[C@H](CCCNC(=N)N)NC(=O)[C@H](Cc4ccc(O)cc4)NC(=O)[C@H](CCCCN)NC(=O)[C@H](CCSC)NC(=O)[C@H](CO)NC(=O)[C@H](Cc4cnc[nH]4)NC(=O)[C@H](CCCCN)NC3=O)C(=O)N[C@@H](CCCNC(=N)N)C(=O)N[C@@H](CCCCN)C(=O)N[C@@H]([C@@H](C)O)C(=O)N2)NC(=O)[C@H](CCCNC(=N)N)NC(=O)[C@H](CO)NC(=O)[C@H](CCCCN)NC(=O)[C@@H]2CCCN2C(=O)[C@H]([C@@H](C)CC)NC(=O)[C@H]([C@@H](C)O)NC(=O)[C@H](CC(=O)O)NC1=O", "values": [{"measurement": "IC50", "setting": "[1]", "result": 0.641, "unit": "nM"}, {"measurement": "IC50", "setting": "[2]", "result": 0.199, "unit": "nM"}]}, {"smiles": "CC[C@H](C)[C@@H]1NC(=O)[C@@H](NC(=O)[C@H](CO)NC(=O)[C@@H](N)CCCNC(=N)N)CSSC[C@@H](C(=O)O)NC(=O)[C@H]([C@@H](C)O)NC(=O)[C@H](C)NC(=O)[C@@H]2CSSC[C@@H]3NC(=O)[C@H](CCC(N)=O)NC(=O)[C@H](Cc4ccccc4)NC(=O)[C@H](C)NC(=O)[C@H]([C@@H](C)O)NC(=O)[C@H](CSSC[C@H](NC(=O)[C@H](Cc4ccccc4)NC(=O)[C@H](CO)NC(=O)[C@H](CC(C)C)NC(=O)[C@H](CCCNC(=N)N)NC(=O)[C@H](Cc4ccc(O)cc4)NC(=O)[C@H](CCCCN)NC(=O)[C@H](CCSC)NC(=O)[C@H](CO)NC(=O)[C@H](Cc4cnc[nH]4)NC(=O)[C@H](CCCCN)NC3=O)C(=O)N[C@@H](CCCNC(=N)N)C(=O)N[C@@H](CCCCN)C(=O)N[C@@H]([C@@H](C)O)C(=O)N2)NC(=O)[C@H](CCCNC(=N)N)NC(=O)[C@H](CO)NC(=O)[C@H](CCCCN)NC(=O)[C@@H]2CCCN2C(=O)[C@H]([C@@H](C)CC)NC(=O)[C@H]([C@@H](C)O)NC(=O)[C@H](CC(=O)O)NC1=O", "values": [{"measurement": "IC50", "setting": "[1]", "result": 0.122, "unit": "nM"}, {"measurement": "IC50", "setting": "[2]", "result": 0.059, "unit": "nM"}]}, {"smiles": "CC[C@H](C)[C@@H]1NC(=O)[C@@H](NC(=O)[C@H](CO)NC(=O)[C@@H](N)CCCNC(=N)N)CSSC[C@@H](C(=O)O)NC(=O)[C@H]([C@@H](C)O)NC(=O)CNC(=O)[C@@H]2CSSC[C@@H]3NC(=O)[C@H](CCC(N)=O)NC(=O)[C@H](Cc4ccccc4)NC(=O)[C@H](C)NC(=O)[C@H]([C@@H](C)O)NC(=O)[C@H](CSSC[C@H](NC(=O)[C@H](Cc4ccccc4)NC(=O)[C@H](CO)NC(=O)[C@H](CC(C)C)NC(=O)[C@H](CCCNC(=N)N)NC(=O)[C@H](Cc4ccc(O)cc4)NC(=O)[C@H](CCCCN)NC(=O)[C@H](CCSC)NC(=O)[C@H](CO)NC(=O)[C@H](Cc4cnc[nH]4)NC(=O)[C@H](CCCCN)NC3=O)C(=O)N[C@@H](CCCNC(=N)N)C(=O)N[C@@H](CCCCN)C(=O)N[C@@H]([C@@H](C)O)C(=O)N2)NC(=O)[C@H](Cc2cccc3ccccc23)NC(=O)[C@H](CO)NC(=O)[C@H](CCCCN)NC(=O)[C@@H]2CCCN2C(=O)[C@H]([C@@H](C)CC)NC(=O)[C@H]([C@@H](C)O)NC(=O)[C@H](CC(=O)O)NC1=O", "values": [{"measurement": "IC50", "setting": "[1]", "result": 1.65, "unit": "nM"}, {"measurement": "IC50", "setting": "[2]", "result": 1.14, "unit": "nM"}]}, {"smiles": "CC[C@H](C)[C@@H]1NC(=O)[C@@H](NC(=O)[C@H](CO)NC(=O)[C@@H](N)CCCNC(=N)N)CSSC[C@@H](C(=O)O)NC(=O)[C@H]([C@@H](C)O)NC(=O)CNC(=O)[C@@H]2CSSC[C@@H]3NC(=O)[C@H](CCC(N)=O)NC(=O)[C@H](Cc4ccccc4)NC(=O)[C@H](C)NC(=O)[C@H]([C@@H](C)O)NC(=O)[C@H](CSSC[C@H](NC(=O)[C@H](Cc4ccccc4)NC(=O)[C@H](CO)NC(=O)[C@H](CC(C)C)NC(=O)[C@H](CCCNC(=N)N)NC(=O)[C@H](Cc4ccc(O)cc4)NC(=O)[C@H](CCCCN)NC(=O)[C@H](CCSC)NC(=O)[C@H](CO)NC(=O)[C@H](Cc4cccc5ccccc45)NC(=O)[C@H](CCCCN)NC3=O)C(=O)N[C@@H](CCCNC(=N)N)C(=O)N[C@@H](CCCCN)C(=O)N[C@@H]([C@@H](C)O)C(=O)N2)NC(=O)[C@H](CCCNC(=N)N)NC(=O)[C@H](CO)NC(=O)[C@H](CCCCN)NC(=O)[C@@H]2CCCN2C(=O)[C@H]([C@@H](C)CC)NC(=O)[C@H]([C@@H](C)O)NC(=O)[C@H](CC(=O)O)NC1=O", "values": [{"measurement": "IC50", "setting": "[1]", "result": 0.255, "unit": "nM"}, {"measurement": "IC50", "setting": "[2]", "result": 0.153, "unit": "nM"}]}, {"smiles": "CC[C@H](C)[C@@H]1NC(=O)[C@@H](NC(=O)[C@H](CO)NC(=O)[C@@H](N)CCCNC(=N)N)CSSC[C@@H](C(=O)O)NC(=O)[C@H]([C@@H](C)O)NC(=O)CNC(=O)[C@@H]2CSSC[C@@H]3NC(=O)[C@H](CCC(N)=O)NC(=O)[C@H](Cc4ccccc4)NC(=O)[C@H](C)NC(=O)[C@H]([C@@H](C)O)NC(=O)[C@H](CSSC[C@H](NC(=O)[C@H](Cc4ccccc4)NC(=O)[C@H](CO)NC(=O)[C@H](CC(C)C)NC(=O)[C@H](CCCNC(=N)N)NC(=O)[C@H](Cc4ccc(O)cc4)NC(=O)[C@H](CCCCN)NC(=O)[C@H](CCSC)NC(=O)[C@H](CO)NC(=O)[C@H](Cc4cnc[nH]4)NC(=O)[C@H](CCCCN)NC3=O)C(=O)N[C@@H](CCCNC(=N)N)C(=O)N[C@@H](CCCCN)C(=O)N[C@@H]([C@@H](C)O)C(=O)N2)NC(=O)[C@H](CCCNC(=N)N)NC(=O)[C@H](CO)NC(=O)[C@H](CCCCN)NC(=O)[C@H](CCC(=O)O)NC(=O)[C@H]([C@@H](C)CC)NC(=O)[C@H]([C@@H](C)O)NC(=O)[C@H](CC(=O)O)NC1=O", "values": [{"measurement": "IC50", "setting": "[1]", "result": 0.239, "unit": "nM"}]}]}
